Experimental data from patent US20230080252A1, “ANTICANCER ADJUVANT AND PHARMACEUTICAL COMPOSITION FOR TREATING ANTICANCER-AGENT-RESISTANT CANCER, AND KIT COMPRISING SAME” (DONG-A UNIVERSITY RESEARCH FOUNDATION FOR INDUSTRY-ACADEMY …, priority 2020, published 2023).

How the values were obtained:
[1] = test system: p-CHK1 (ATR-CHK1 pathway); assay: CHK1 phosphorylation (immunoblot / immunostaining) after UV or HU; assay type: cell-based, human; conditions: inhibitor added after UV irradiation, fixed after 2 hours, anti-p-CHK1 immunostaining
Description: FIG. 1D is a quantification of the percentage of p-CHK1-positive cells from UV-treated data of FIG. 1C. […] In each experiment, >100 cells were randomly chosen to determine the percentage of p-CHK1-positive cells.
The two DNA damage response kinases ATR and ATM play key roles in the protection of genomic integrity from genotoxic stress by sensing a single-strand break and DSB (Double strand break), respectively. To identify the functions of TTP in the DNA damage response, we first analyzed the phosphorylation levels of CHK1 (p-CHK1) and CHK2 (p-CHK2) as readouts of ATR and ATM activity, respectively.
Then, we treated cells with HU, another CHK1 phosphorylation-triggering agent which depletes the deoxynucleoside triphosphate pool, thus inducing the RSR (Replication Stress Response).

[2] = test system: A549 (human lung carcinoma) cells; assay: DNA fiber analysis of replication forks; assay type: cell-based; conditions: unperturbed A549 cells; IdU and CldU 20 min each; control 0.36 μm/min
Procedure: The ratios of CldU to IdU were calculated from active replication forks. […] Single-strand DNA (ssDNA; blue) was labelled with ssDNA-specific antibodies. Percentages of stalled forks were calculated by dividing the number of red-only tracts (stalled forks) by the total number of red-only plus red-green tracts (stalled and restarted forks, respectively). Analyses were performed on a minimum of 200 individual DNA fibers. […] The recovery of S phase progression is presented as a percentage of EdU positive cells at 6 h after the release from HU treatment. In each experiment, >100 cells were randomly chosen to determine the percentage of EdU-positive cells. […] The ratio of CldU to IdU in terms of length was calculated from active replication forks (red-green). […]
(1) ATR-CHK1 pathway accounts for the central replication stress responses and once activated it helps the cell to survive and faithfully complete DNA replication under stress. Having shown that TTP is found to be implicated in the ATR-CHK1 activation, as in Example 1 above, we decided to examine the effect of TTP on the replication fork stability using DNA fiber analysis, the clearest read-out of replication stress which relies on the incorporation of nucleotide analogues. […]
(3) We next examined the involvement of TTP in stalled fork protection. […] We then analyzed the relative shortening of CldU fiber as indicative of fork degradation. […]

Molecule | residual p-CHK1 signal in TTP-deficient cells [1] | average fork velocity [2] [μm/min]
CNCc1ccc(-c2cc(-c3nc(-c4ccc(S(=O)(=O)C(C)C)cc4)cnc3N)on2)cc1 [VE-822] | vanished | –
siClaspin: siRNA (SEQ ID NO: 20) introduced into cells to make Claspin-deficient cells (AACCUUGCUUAGAGCUGAGUCUUCA; listed as RNA, chemistry not given here) | – | 0.22
